Test results: patent US20240115705A1, “Regulation of Butyrophilin subfamily 3 member A1 (BTN3A1, CD277)” (The J. Gladstone Institutes, a testamentary trust …, priority 2021, published 2024)
Where two headings read alike, the source gives them in different places.

System: Daudi-Cas9 cells
Assay: Cancer-T cell co-culture genome-wide CRISPR knockout screen (Vγ9Vδ2 T cell killing)
Type: cell-based, human
[1] = MAGeCK sgRNA test, co-culture screen
[2] = log-fold change of sgRNA, surviving cells after co-culture vs baseline, MAGeCK
[3] = sgRNA abundance in surviving Daudi-Cas9 KO cells after 24 hours Vγ9Vδ2 T cell co-culture with zoledronate, MAGeCK
[4] = sgRNA enriched (TRUE) or depleted (FALSE) after T cell co-culture

GSS_ACCCCAGCTGTGCACCGGT: library sgRNA targeting GSS (listed as DNA, chemistry not fully specified)
score [1]: 6.1722
LFC [2]: −4.0666
treat mean [3]: 169.48
high_in_treatment [4]: FALSE

GTF2A2_AGCACTGGCTCAGAGGGTC: library sgRNA targeting GTF2A2 (listed as DNA, chemistry not fully specified)
score [1]: 6.6409
LFC [2]: −6.616
treat mean [3]: 29.574
high_in_treatment [4]: FALSE

HISTIH3J_CACGCAAGGCCACGGTGCC: library sgRNA targeting HIST-1H3J (listed as DNA, chemistry not fully specified)
score [1]: 6.0349
LFC [2]: 1.0769
treat mean [3]: 4138.5
high_in_treatment [4]: TRUE

IFFO1_GGCCTGGGTCGTCGCGACC: library sgRNA targeting IFFO1 (as printed in the source, key not given here)
score [1]: 5.9717
LFC [2]: 4.5353
treat mean [3]: 68.011
high_in_treatment [4]: TRUE

IFNAR1_TCCATCAGATGCTTGTACG: library sgRNA targeting IFNAR1 (listed as DNA, chemistry not fully specified)
score [1]: 7.1422
LFC [2]: 1.2274
treat mean [3]: 4399.3
high_in_treatment [4]: TRUE

IRF1_AGCCGAGATGCTAAGAGCA: library sgRNA targeting IRF1 (as printed in the source, key not given here)
score [1]: 8.1693
LFC [2]: 1.6173
treat mean [3]: 3151.9
high_in_treatment [4]: TRUE

IRF1_CACCTCCTCGATATCTGGC: library sgRNA targeting IRF1 (as printed in the source, key not given here)
score [1]: 8.8869
LFC [2]: 1.2122
treat mean [3]: 7029.4
high_in_treatment [4]: TRUE

IRF1_CTAGGCCGATACAAAGCAG: library sgRNA targeting IRF1 (as printed in the source, key not given here)
score [1]: 9.7786
LFC [2]: 1.6906
treat mean [3]: 4103.9
high_in_treatment [4]: TRUE

IRF1_GGAAGCATGCTGCCAAGCA: library sgRNA targeting IRF1 (as printed in the source, key not given here)
score [1]: 8.5638
LFC [2]: 1.6107
treat mean [3]: 3499.5
high_in_treatment [4]: TRUE

IRF1_TGCCTGTTTGTTCCGGAGC: library sgRNA targeting IRF1 (as printed in the source, key not given here)
score [1]: 11.386
LFC [2]: 1.4325
treat mean [3]: 8072.2
high_in_treatment [4]: TRUE

IRF9_TGTATCAGTTGCTGCCACC: library sgRNA targeting IRF9 (as printed in the source, key not given here)
score [1]: 7.0068
LFC [2]: 1.2192
treat mean [3]: 4293.9
high_in_treatment [4]: TRUE

LUM_TAGAAAACTCCAAGATAAA: library sgRNA targeting LUM (listed as DNA, chemistry not fully specified)
score [1]: 8.61
LFC [2]: 4.64
treat mean [3]: 171.75
high_in_treatment [4]: TRUE

MED26_CCTCGGAACTCACGGCATG: library sgRNA targeting MED26 (as printed in the source, key not given here)
score [1]: 6.025
LFC [2]: −1.9192
treat mean [3]: 1185.6
high_in_treatment [4]: FALSE

MRPL9_CTCCACGATGACCGTGCCC: library sgRNA targeting MRPL9 (as printed in the source, key not given here)
score [1]: 6.5755
LFC [2]: −4.3743
treat mean [3]: 152.42
high_in_treatment [4]: FALSE

MRPL28_TTCCCCCCGAATCCCAGCG: library sgRNA targeting MRPL28 (as printed in the source, key not given here)
score [1]: 7.2159
LFC [2]: −3.2156
treat mean [3]: 469.77
high_in_treatment [4]: FALSE

MRPL55_CGACTCTACCCCGTGCTGC: library sgRNA targeting MRPL55 (as printed in the source, key not given here)
score [1]: 6.305
LFC [2]: −4.7404
treat mean [3]: 104.65
high_in_treatment [4]: FALSE

MRPS26_CCCCCGGCCGCACACCTGA: library sgRNA targeting MRPS26 (as printed in the source, key not given here)
score [1]: 7.3571
LFC [2]: −3.3597
treat mean [3]: 431.96
high_in_treatment [4]: FALSE

MTG2_ATGAGTACATTGCCGCGCT: library sgRNA targeting MTG2 (listed as DNA, chemistry not fully specified)
score [1]: 6.5262
LFC [2]: −4.2612
treat mean [3]: 163.79
high_in_treatment [4]: FALSE

N6AMT1_AGCAGAAACGTGTCCTCCG: library sgRNA targeting N6AMT1 (listed as DNA, chemistry not fully specified)
score [1]: 6.0901
LFC [2]: −3.683
treat mean [3]: 224.71
high_in_treatment [4]: FALSE

NAPG_GCAAAAGATGCCTGCCTGA: library sgRNA targeting NAPG (listed as DNA, chemistry not fully specified)
score [1]: 6.3569
LFC [2]: −6.2732
treat mean [3]: 33.086
high_in_treatment [4]: FALSE

NLRC5_AGTCACGTGTCCTACCGTC: library sgRNA targeting NLRC5 (listed as DNA, chemistry not fully specified)
score [1]: 6.4705
LFC [2]: 1.0275
treat mean [3]: 5262.4
high_in_treatment [4]: TRUE

NUDCD3_TCACCACGTGCTTGGGTAC: library sgRNA targeting NUDCD3 (listed as DNA, chemistry not fully specified)
score [1]: 6.5243
LFC [2]: −3.6651
treat mean [3]: 262.75
high_in_treatment [4]: FALSE

NUP37_GCCAGCACACACTCATGCC: library sgRNA targeting NUP37 (listed as DNA, chemistry not fully specified)
score [1]: 5.9656
LFC [2]: −1.9711
treat mean [3]: 1092.8
high_in_treatment [4]: FALSE

OIP5_CGACTCGGTGCACCTCGCC: library sgRNA targeting OIP5 (as printed in the source, key not given here)
score [1]: 6.3045
LFC [2]: −7.255
treat mean [3]: 16.543
high_in_treatment [4]: FALSE

OIP5_TATTCTACCCATGCTGCCC: library sgRNA targeting OIP5 (as printed in the source, key not given here)
score [1]: 6.4136
LFC [2]: −5.8943
treat mean [3]: 45.034
high_in_treatment [4]: FALSE

PHB_GACCGATTCCGTGGAGTGC: library sgRNA targeting PHB (as printed in the source, key not given here)
score [1]: 6.0021
LFC [2]: −3.7742
treat mean [3]: 202.44
high_in_treatment [4]: FALSE

PNLIPRP1_GCCCCTGAAAATTCTCCCC: library sgRNA targeting PNLIPRP1 (chemistry not given here)
LFC: −2.1878
high_in_treatment: FALSE
score: 7.0018
treat mean: 1182.9

PRMT1_TGGTGCTGGACGTCGGCTC: library sgRNA targeting PRMT1 (listed as DNA, chemistry not fully specified)
score [1]: 6.7595
LFC [2]: −8.6196
treat mean [3]: 6.7801
high_in_treatment [4]: FALSE

PSMG4_CACCTGCGCAACCTCGCCG: library sgRNA targeting PSMG4 (listed as DNA, chemistry not fully specified)
score [1]: 6.1467
LFC [2]: −3.4412
treat mean [3]: 279.92
high_in_treatment [4]: FALSE

RAB7A_CGGTTCCAGTCTCTCGGTG: library sgRNA targeting RAB7A (listed as DNA, chemistry not fully specified)
score [1]: 6.2219
LFC [2]: −4.046
treat mean [3]: 175.17
high_in_treatment [4]: FALSE

RFXAP_ACAGGGTTGCATCACTAGC: library sgRNA targeting RFXAP (listed as DNA, chemistry not fully specified)
score [1]: 10.037
LFC [2]: 1.6018
treat mean [3]: 4884.6
high_in_treatment [4]: TRUE

RFXAP_ACGAGGAGACTCACTCGGG: library sgRNA targeting RFXAP (listed as DNA, chemistry not fully specified)
score [1]: 6.9897
LFC [2]: 2.2103
treat mean [3]: 1110.2
high_in_treatment [4]: TRUE

RFXAP_AGACACTTCGGACCCTCCG: library sgRNA targeting RFXAP (listed as DNA, chemistry not fully specified)
score [1]: 10.922
LFC [2]: 1.5343
treat mean [3]: 6378.3
high_in_treatment [4]: TRUE

RFXAP_CGTTAGGTACCTGTGCGAA: library sgRNA targeting RFXAP (listed as DNA, chemistry not fully specified)
score [1]: 7.0414
LFC [2]: 1.5428
treat mean [3]: 2592.9
high_in_treatment [4]: TRUE

RPP21_GCACTCACGTCTCTGGCGC: library sgRNA targeting RPP21 (as printed in the source, key not given here)
score [1]: 6.2576
LFC [2]: −7.9412
treat mean [3]: 9.6859
high_in_treatment [4]: FALSE

RPP25L_TGGCTCTGGGTCGGTTGGA: library sgRNA targeting RPP25L (as printed in the source, key not given here)
score [1]: 6.0209
LFC [2]: −7.7316
treat mean [3]: 9.1906
high_in_treatment [4]: FALSE
